According to US20140303258A1, “Method of solubilizing insoluble bioactive compounds using triterpene glycosides and compositions thereof” (priority 2013, published 2014):

How the values were obtained:
[1] = Behaviour of the bioactive in distilled water at 37° C. without solubilizer; type: physicochemical; conditions: 2 grams in 200 ml distilled water, no solubilizer
Procedure: (§1) • A. Two beakers each containing 200 ml distilled water (37° C.) were taken. • B. To each beaker, 2 grams commercially available curcuminoids (Curcumin C3 Complex®) was added and gently mixed. […] To the first beaker, 0.35 gram of Bacopa glycosides including 25% w/w to 75% w/w of total Bacosides (Bacopin®) was added and gently mixed for about 15 minutes. […] This corresponded to a Critical Micelle Concentration (CMC) of 17.5% • D. To the second beaker, 0.40 gram of Centella glycosides including at least 8% w/w of total triterpenes (Centellin®) was added and gently mixed for about 15 minutes. […] This corresponded to Critical Micelle Concentration (CMC) of 20.0%.
(§2) • A. Five beakers each containing 200 ml distilled water at 37° C. were taken. To 3 beakers were added 2 gm of bioactive compounds forskolin (Forslean® 95%), boswellic acids (Boswellin® 70%) and pterostilbene 99% respectively. To the other 2 beakers were added 2 gm of Saw Palmetto extract 85% and Ginger Soft extract SCFE 35% respectively. […] The Critical Micelle Concentration (CMC) for each system was determined (Table A; FIGS. 3A, 3B, 3C, 3D and 3E)
(§3) • A. To a beaker containing 200 ml distilled water (37° C.) was added 2 grams of tetrahydrocurcuminoids (C3 Reduct®). […] The majority (˜70%) of tetrahydrocurcuminoids was not observable at the bottom of the beaker anymore due to formation of emulsion (FIG. 4)

[2] = type: physicochemical
Procedure: as §1, §2, §3

Structure (SMILES)	solubility in distilled water (observation) [1]	CMC % (wt/wt) [2]
COc1cc(/C=C/c2ccc(O)cc2)cc(OC)c1 [Pterostilbene 99%, pterostilbene]	did not go into solution	14.50% (wt/wt)
C=C[C@@]1(C)CC(=O)[C@]2(O)[C@@]3(C)[C@@H](O)CCC(C)(C)[C@@H]3[C@H](O)[C@H](OC(C)=O)[C@@]2(C)O1 [ForsLean 95%, forskolin]	did not go into solution	20% (wt/wt)
